Data from patent US6512166B1, “Combinations of fungal cell wall degrading enzyme and fungal cell membrane affecting compound” (priority 1991, dated 2003).
Where two headings read alike, the source gives them in different places.

Tests used:
[1] = tested on: Botrytis cinerea; assay: Inhibition of spore germination, Eppendorf tube assay (Examples I and II); type: cell-based; conditions: for inhibition at 0.5 µg/mL: read-out: % inhibition; for % inhibition: enzyme 0 μg ml^−1 (fungicide alone); for % inhibition / Ee, expected effect from an additive response according to Limpel's formula, percent inhibition / Io, percent inhibition observed: flusilazole 5 ng ml^−1, miconazole 0.5 μg ml^−1; for ED50 of fungicide (dose effective for 50% inhibition): Table 9
[2] = tested on: B. cinerea strain 12; assay: Inhibition of spore germination, ELISA plate assay (Examples III-XVI, XVIII); type: cell-based, Botrytis cinerea; conditions: Table 20; concentration of flusilazole for 50% inhibition, alone or with enzyme at its ED10 concentration
Procedure: (§1) The concentration where fungal cell wall degrading enzyme individually provides a specified percentage fungal inhibition or where antifungal fungal cell membrane affecting compound individually provides a specific percentage fungal inhibition can be determined as follows: Assays are performed under sterile conditions. Equal volumes of spore suspensions, 3× potato dextrose broth, and the test solution or suspension in 5 mM Tris-HCl (pH 6.0) or 5 mM potassium phosphate buffer (pH 6.7) are mixed. The control is the same as the test solution except for the control the antifungal agent is omitted. The assay mixtures (total volume 45 or 30 μl) are incubated on flat-bottomed ELISA plates, each containing 96 wells, with 2,000 to 3,000 spores per well, at 25° C. After 22 to 30 hours, the plates are placed under an inverted microscope. The percentage of conidia germinating is determined as the percentage of the first 100 spores randomly found in a well. In addition, the lengths of 20 germ tubes are measured and averaged. All experiments are performed twice, with three replicates for each treatment. The inhibition values obtained in the two experiments are combined and averaged, and standard deviations are calculated from the 6 data points. The values obtained for the control are taken as 0% inhibition and all other values are divided by the values obtained for the control and multiplied by 100% to obtain percent inhibition. Determination of concentration corresponding to a particular percent inhibition is carried out by subjecting dose-response curves to regression analysis by using a binomial regression of the third order, with R^2 ranging between 0.95 and 0.99.
(§2) Assays were carried out by the procedure described in the summary of the invention section. Dose response curves were obtained by probit analysis of data collected from two separate experiments with each experiment involving three treatment replicates.
Each of 8 antifungal fungal cell membrane affecting compounds were used in combination with each of 8 or 6 fungal cell wall degrading enzymes to provide 50% inhibition (ED50) of B. cinerea strain 12 spore germination. Each fungal cell wall degrading enzyme was used at a concentration giving 10% inhibition of spore germination when used alone in combination with an amount of antifungal fungal cell membrane affecting compound so the combination gave 50% inhibition of spore germination.
(§3) Dose response curves were determined for each antifungal fungal cell membrane affecting compound and for each fungal cell wall degrading enzyme singly. Then each fungal cell wall degrading enzyme at a concentration giving 10% inhibition when used alone was combined with increasing amounts of antifungal fungal cell membrane affecting compound. Then the concentration of antifungal fungal cell membrane affecting compound causing the ED50 for each combination was calculated by probit analysis of data collected from two experiments with three treatment replicates for each experiment. Assays for inhibition of spore germination were carried out as described in the summary of invention section above.
The relative level of synergism (RS below) for each combination was calculated by applying Limpel's formula: Ee=X+Y−(XY/100) as described in Richer, D. L, Pestic. Sci. 19, 309-315, 1987. In Limpel's formula, X and Y are the percentages of inhibition relative to each compound used alone and Ee is the expected effect for an additional (non-synergistic) effect. If the combination of the two agents produces an observed effect (Eo) greater than Ee, synergism exists, and as the difference between Eo and Ee increases, the level of synergism is greater. […]

[3] = tested on: Fusarium oxysporum strain FOP1; assay: Inhibition of spore germination, ELISA plate assay (Examples V-XIV, XVII); type: cell-based; conditions: Table 28; concentration of flusilazole for 50% inhibition, alone or with enzyme at its ED10 concentration
Procedure: as §1, §2, §3
The relative level of synergism (RS below) for each combination was calculated by applying Limpel's formula: Ee=X+Y−(XY/100) as described in Richer, D. L, Pestic. Sci. 19, 309-315, 1987. In Limpel's formula, X and Y are the percentages of inhibition relative to each compound used alone and Ee is the expected effect for an additional (non-synergistic) effect. If the combination of the two agents produces an observed effect (Eo) greater than Ee, synergism exists, and as the difference between Eo and Ee increases, the level of synergism is greater. In this experiment, the X value (percentage inhibition by fungal cell wall degrading enzyme when used alone was chosen to be 10 (10% inhibition of spore germination when used alone) and the observed effect, Eo, was 50 (i.e., 50% inhibition of spore germination). The Y values were obtained from the determined concentrations of antifungal cell membrane affecting compound causing the ED50 for a combination and the dose response curves for the antifungal cell membrane affecting compound used alone—i.e., the Y value was the percent inhibition for the antifungal fungal cell membrane affecting compound when used alone for the concentration of antifungal fungal cell membrane affecting compound that was determined to cause the ED50 for the combination. Ee values were then calculated from Limpel's formula. […]

[4] = Solubility, guidance for forming solutions
From the text: Compositions for use in the systems herein are readily formulated by admixing the fungal cell wall degrading enzymes and the antifungal fungal cell membrane affecting compounds with non-toxic carriers appropriate for the particular use for a composition, e.g., agriculturally acceptable carriers for agricultural uses and pharmaceutically acceptable carriers for medicinal uses. They may be formulated as liquids (solutions or suspensions) or as solids. Since the fungal cell wall degrading enzymes need free water for activity, water must be present at the time of function. […] Water is a preferred vehicle where components are soluble in it. […] Organic solvents can also be used and may be required in some cases if a solution is desired. Guidance for forming solutions follows. […] Suspension can also be employed.

## C[Si](Cn1cncn1)(c1ccc(F)cc1)c1ccc(F)cc1 [Flusilazole, flusilazole]
[1]; Botrytis cinerea, Table 5, endochitinase from G. virens strain 41 at 25 μg ml^−1, with flusilazole 5 ng ml^−1, miconazole 0.5 μg ml^−1 or none (enzyme alone)
  inhibition at 5 ng/mL: 89%
[1]; Table 4, endochitinase from T. harzianum strain P1 at 75 μg ml^−1, with flusilazole 5 ng ml^−1, miconazole 0.5 μg ml^−1 or none (enzyme alone)
  inhibition at 0.5 µg/mL: 100%
[1]; Table 4
  % inhibition: 18%
[1]; Table 5
  % inhibition: 18%
[1]; Table 6, chitobiosidase from T. harzianum strain P1 at 75 μg ml^−1, with flusilazole 5 ng ml^−1, miconazole 0.5 μg ml^−1 or none (enzyme alone)
  inhibition at 0.5 µg/mL: 100%
[1]; Table 6
  % inhibition: 18%
[1]; Table 7
  % inhibition: 18%
[1]; Table 7, glucan 1,3-β-glucosidase from T. harzianum strain P1 at 100 μg ml^−1, with flusilazole 5 ng ml^−1, miconazole 0.5 μg ml^−1 or none (enzyme alone)
  inhibition at 0.5 µg/mL: 100%
[1]; no endochitinase (0 μg ml^−1)
  ED50 of fungicide (dose effective for 50% inhibition): 60 ng/mL
[1]; with endochitinase from T. harzianum strain P1 at 10 μg ml^−1
  ED50 of fungicide (dose effective for 50% inhibition): 0.7 ng/mL
[1]; with endochitinase from T. harzianum strain P1 at 25 μg ml^−1
  ED50 of fungicide (dose effective for 50% inhibition): 0.3 ng/mL
[1]; Table 10, no chitobiosidase (0 μg ml^−1)
  ED50 of fungicide: 60 ng/mL
[1]; Table 10, with chitobiosidase from T. harzianum strain P1 at 25 μg ml^−1
  ED50 of fungicide: 1 ng/mL
[1]; Table 10, with chitobiosidase from T. harzianum strain P1 at 50 μg ml^−1
  ED50 of fungicide: 0.4 ng/mL
[1]; Table 10, with chitobiosidase from T. harzianum strain P1 at 75 μg ml^−1
  ED50 of fungicide: 0.35 ng/mL
[1]; Table 10, with chitobiosidase from T. harzianum strain P1 at 100 μg ml^−1
  ED50 of fungicide: 0.3 ng/mL
[1]; Table 11, no glucosidase (0 μg ml^−1)
  ED50 of fungicide: 60 ng/mL
[1]; Table 11, with glucan 1,3-β-glucosidase from T. harzianum strain P1 at 25 μg ml^−1
  ED50 of fungicide: 3.3 ng/mL
[1]; Table 11, with glucan 1,3-β-glucosidase from T. harzianum strain P1 at 50 μg ml^−1
  ED50 of fungicide: 1 ng/mL
[1]; Table 11, with glucan 1,3-β-glucosidase from T. harzianum strain P1 at 75 μg ml^−1
  ED50 of fungicide: 0.17 ng/mL
[1]; Table 12, no endochitinase (0 μg ml^−1)
  ED50 of fungicide: 60 ng/mL
[1]; Table 12, with endochitinase from G. virens strain 41 at 25 μg ml^−1
  ED50 of fungicide: 2.5 ng/mL
[1]; Table 12, with endochitinase from G. virens strain 41 at 50 μg ml^−1
  ED50 of fungicide: 1 ng/mL
[1]; Table 12, with endochitinase from G. virens strain 41 at 75 μg ml^−1
  ED50 of fungicide: 4.5 ng/mL
[1]; Table 12, with endochitinase from G. virens strain 41 at 100 μg ml^−1
  ED50 of fungicide: 0.22 ng/mL
[1]; with Chitob. (P1) 25 μg ml^−1
  Ee, expected effect from an additive response according to Limpel's formula, percent inhibition: 27%
[1]; with Endoc. (41) 25 pg ml^−1 (so in the source)
  Io, percent inhibition observed: 67%
[1]; with Endoc. (P1) 25 μg ml^−1
  Ee, expected effect from an additive response according to Limpel's formula, percent inhibition: 41%
[1]; with Glucan. (P1) 25 μg ml^−1
  Ee, expected effect from an additive response according to Limpel's formula, percent inhibition: 22.1%
  Io, percent inhibition observed: 65%
[2]
  ED50: 68 (61-85) ng ml^−1
[3]
  ED50: 59.0 (51-65) ng ml^−1
[4]
  solubility (solvent in which the substance dissolves): dissolve in acetone
